In patent US10695387B2, “Extracts of microalgae and plants for regulating sebum production” (Cutech SRL, priority 2014, dated 2020):

Test system: human sebaceous glands (hSGs)
Assay: Ex-vivo culture of human sebaceous glands (hSGs), quantification of sebum content (lipids/proteins) vs control
Type: cell-based
Conditions: positive control
Text: All the reported examples are intended to show the modulation of sebum production exerted by the experimental preparations on human hSGs microdissected and cultivated up to day 6. At the end of the culture time, the sebum is extracted and quantified from each experimental group of hSGs and then normalized by the proteins extracted from the residual hSG material (mg lipids/mg proteins). As a result, the biological activity of the tested compounds is inferred by comparing the ratio lipids/proteins of the treated glands with that of the control group.
Using micro-scissors and tweezers, hSGs were isolated from the pilosebaceous units of a scalp skin sample. They were seeded in 24-well plates at the density of 8 hSGs/well and then cultivated in 500 μl of modified William E medium. After 24 hours of culture the viability of the hSGs was assessed by means of resazurine assay. Briefly, each hSGs group was transferred onto a microplate well with 200 μl of 10% resazurin culture medium for 2 hours. During this period the resazurin, a non-fluorescent blue dye, is reduced by living cells to the pink coloured and highly red fluorescent resorufin. At the end of the incubation, the medium was withdrawn and analyzed for the resazurin fluorescence in a plate reader ([…]). The fluorescence signal positively correlates with the hSGs viability. Since the resazurin test is not toxic, the hSGs were then seeded in a 24-well plate and cultivated with the experimental culture media in order to start the treatments. The control received William E medium appropriately modified, while the samples submitted to experimental treatments received the same medium supplemented with experimental extracts. The culture medium was renewed every other day. After six days of organ culture, the viability of the hSGs was again assessed via resazurine assay and then, having attested their good viability, each group of hGSs was collected and analyzed for quantifying the sebum content.
Each hSG group was homogenized in 100 μl of isopropyl alcohol;
the sample was centrifuged at 14,000 G for 5 minutes and then the supernatant (containing the extracted sebum) was collected;
the sebum extract was analyzed in triplicate with a Direct Detect IR Spectrometer (Millipore), which provided the total lipid concentration of the supernatant (mg/ml);
the total lipids of the hSGs was quantified multiplying the supernatant lipid concentration (indention 3) by the volume of isopropyl alcohol adopted for the lipid extraction (indention 1);
the pellet remaining from indention 2 was dried by means of a vacuum dry evaporator and then again homogenized in 50 μl of proteolytic buffer (20 mM Tris/HCl pH 7.5, 150 mM NaCl, 2 mM EDTA, 0.5% Triton X-100, 2 mM DTT, 1% protease inhibitor cocktail);
after an appropriate incubation time, this extractive mixture was centrifuged at 14,000 G for 10 minutes and the supernatant was collected and analyzed in triplicate with a Direct Detect IR Spectrometer (Millipore);
the obtained total protein concentration was multiplied by the extractive volume (indention 5) in order to quantify the total proteins of the hSGs;
the total lipid amount (indention 4), i.e. the amount of sebum, was divided by the total proteins (indention 7) in order to obtain the normalized amount of lipids per mg of proteins (mg of lipids/mg of proteins).
The amounts of normalized lipids obtained from the treated groups, i.e. the sebum produced by each group of hSGs, were expressed in percentages with respect to the value obtained in the control group, in order to point out the regulatory effect performed by the experimental treatment.

COc1cc(CNC(=O)CCCC/C=C/C(C)C)ccc1O [Capsaicin]
Sebum content in hSGs, Average, % ratio of the control group performance (Table 2 experiment, 5 μM): 90.3% | Sebum content in hSGs, Average, % ratio of the control group performance (Table 5 experiment, Amount 0): 68.5% | Sebum content in hSGs, Average, % ratio of the control group performance (Table 6 experiment (different donor), Amount 0): 59.2% | Sebum content in hSGs, Average, % ratio of the control group performance (Table 7 experiment, Amount 0): 97.4% | Sebum content in hSGs, Average, % ratio of the control group performance (Table 8 experiment, Amount 0): 91.9% | Sebum content in hSGs, Average, % ratio of the control group performance (Table 10 experiment, 5 μg/ml): 62.9%
